# Entries after “also recorded” stand apart in the source; their conditions may differ. Like-named read-outs stand apart in the source and are kept apart here.
# Legend:
# Sprague-Dawley rats [1] = test: Burst suppression ratio and blood pressure during continuous etomidate infusion; format: in vivo, rat; conditions: continuous etomidate i.v.; escalating calabadion 2 infusion; returned from 83%; n=10
# S.typhimurium TA 1537 = test: Bacteria reverse mutation assay; conditions: for ratio of number of colonies after treatment relative to untreated bacteria: <1.6 not mutagenic
# S.typhimurium TA 98 = test: Bacteria reverse mutation assay; conditions: for ratio of number of colonies after treatment relative to untreated bacteria: <1.6 not mutagenic
# [2] = system: THP-1, HepG2 and HEK293 cells; test: Adenylate kinase release cell necrosis; format: cell-based, human; conditions: calabadion 2 up to 1 mM
# [3] = system: S.typhimurium TA1535, TA 1537, TA 98 and TA 100; test: Bacteria reverse mutation assay; conditions: Ames test, −/+S9
# liver cells (HepG2) = test: MTS cell viability assay; format: cell-based, human; conditions: calabadion 2 up to 1 mM
# rats = test: Balance beam test of functional mobility after anesthesia; format: in vivo, rat; conditions: n=7
# kidney cells (HEK293) = test: MTS cell viability assay; format: cell-based, human; conditions: calabadion 2 up to 1 mM
# Sprague-Dawley rats [4] = test: Total EEG power and blood pressure during continuous ketamine infusion; format: in vivo, rat; conditions: highest calabadion 2 dose, baseline 96 mmHg, n=10
# Sprague-Dawley rats [5] = test: Time to recovery from loss of righting reflex; format: in vivo, rat
# hERG channel = hERG channel (Homo sapiens, UniProt Q12809); conditions: read-out: IC50, hERG channel; CHO-hERG, patch clamp, up to 25 μM
# Job plot [6] = format: physicochemical; conditions: calabadion 2•etomidate; establishes 1:1 complex
# [7] = system: human white blood cells (THP-1); test: MTS cell viability assay; format: cell-based; conditions: calabadion 2 up to 1 mM
# Job plot [8] = format: physicochemical; conditions: calabadion 2•ketamine, total 1 mM, pD 7.4; establishes 1:1 complex
# Sprague-Dawley rats [9] = test: Maximal tolerated dose escalation study with histopathology in rats; format: in vivo, rat
# S.typhimurium TA 1535 = conditions: for ratio of number of colonies after treatment relative to untreated bacteria: <1.6 not mutagenic
# Swiss Webster mice = test: Dose escalation; format: in vivo, mouse
# S.typhimurium TA 100 = conditions: for ratio of number of colonies after treatment relative to untreated bacteria: <1.6 not mutagenic
# Chain of hERG channel (Q12809 whole entry): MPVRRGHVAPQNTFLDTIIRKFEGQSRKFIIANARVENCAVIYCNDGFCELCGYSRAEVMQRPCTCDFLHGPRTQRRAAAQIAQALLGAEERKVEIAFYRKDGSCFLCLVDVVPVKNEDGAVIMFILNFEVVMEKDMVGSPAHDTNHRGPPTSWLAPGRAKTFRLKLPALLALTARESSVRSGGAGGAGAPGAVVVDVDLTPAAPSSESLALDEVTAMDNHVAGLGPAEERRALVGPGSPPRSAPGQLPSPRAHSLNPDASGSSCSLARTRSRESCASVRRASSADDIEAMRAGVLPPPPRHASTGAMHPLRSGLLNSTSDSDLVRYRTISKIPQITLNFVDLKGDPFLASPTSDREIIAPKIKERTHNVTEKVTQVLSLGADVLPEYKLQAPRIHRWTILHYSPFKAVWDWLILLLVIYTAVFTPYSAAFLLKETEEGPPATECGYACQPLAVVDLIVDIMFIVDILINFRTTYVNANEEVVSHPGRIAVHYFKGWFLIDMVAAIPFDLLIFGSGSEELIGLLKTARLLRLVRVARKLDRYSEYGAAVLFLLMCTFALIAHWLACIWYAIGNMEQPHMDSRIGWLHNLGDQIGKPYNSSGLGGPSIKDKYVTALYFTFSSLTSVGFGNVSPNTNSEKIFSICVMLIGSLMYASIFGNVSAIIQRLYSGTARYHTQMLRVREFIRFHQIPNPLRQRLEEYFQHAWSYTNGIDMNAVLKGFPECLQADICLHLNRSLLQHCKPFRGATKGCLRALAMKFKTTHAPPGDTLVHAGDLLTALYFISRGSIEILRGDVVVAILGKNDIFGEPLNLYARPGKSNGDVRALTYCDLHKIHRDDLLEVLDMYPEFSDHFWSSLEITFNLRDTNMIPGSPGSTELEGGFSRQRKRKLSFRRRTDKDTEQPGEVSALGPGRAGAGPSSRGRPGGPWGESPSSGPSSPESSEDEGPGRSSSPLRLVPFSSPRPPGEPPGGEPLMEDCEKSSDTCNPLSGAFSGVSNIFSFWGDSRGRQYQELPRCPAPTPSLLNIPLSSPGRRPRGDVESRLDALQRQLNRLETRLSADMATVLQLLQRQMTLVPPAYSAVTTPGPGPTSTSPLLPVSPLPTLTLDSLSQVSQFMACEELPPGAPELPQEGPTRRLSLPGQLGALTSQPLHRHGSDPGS
structure (smiles),measurement,setting,value
C[C@]12N3Cc4c(c(OCCCS(=O)(=O)[O-])c5ccccc5c4OCCCS(=O)(=O)[O-])CN1C(=O)N1CN4C(=O)N5CN6C(=O)N7CN8C(=O)N9Cc%10c(c(OCCCS(=O)(=O)[O-])c%11ccccc%11c%10OCCCS(=O)(=O)[O-])CN%10C(=O)N(CN%11C(=O)N(CN%12C(=O)N(CN(C3=O)[C@]12C)[C@@H]4[C@H]%125)[C@@H]6[C@H]%117)[C@]8(C)[C@@]9%10C.[Na+].[Na+].[Na+].[Na+] [Calabadion 2],"mean arterial blood pressure (MAP), % of pre-etomidate baseline",Sprague-Dawley rats [1],101%
same,number of colonies growing after treatment,"S.typhimurium TA 1537; TA 1537, +S9, 0.012 mg per plate",2 ± 1
same,number of colonies growing after treatment,"S.typhimurium TA 1537; TA 1537, +S9, 0.037 mg per plate",4 ± 1
same,number of colonies growing after treatment,"S.typhimurium TA 1537; TA 1537, +S9, 0.11 mg per plate",6 ± 1
same,number of colonies growing after treatment,"S.typhimurium TA 1537; TA 1537, +S9, 0.33 mg per plate",6 ± 1
same,number of colonies growing after treatment,"S.typhimurium TA 1537; TA 1537, +S9, 1 mg per plate",5 ± 2
same,ratio of number of colonies after treatment relative to untreated bacteria,"S.typhimurium TA 1537; TA 1537, +S9",0.71
same,number of colonies growing after treatment,"S.typhimurium TA 1537; TA 1537, −S9, 0.012 mg per plate",7 ± 2
same,number of colonies growing after treatment,"S.typhimurium TA 1537; TA 1537, −S9, 0.037 mg per plate",8 ± 2
same,number of colonies growing after treatment,"S.typhimurium TA 1537; TA 1537, −S9, 0.11 mg per plate",7 ± 2
same,number of colonies growing after treatment,"S.typhimurium TA 1537; TA 1537, −S9, 0.33 mg per plate",8 ± 1
same,number of colonies growing after treatment,"S.typhimurium TA 1537; TA 1537, −S9, 1 mg per plate",3 ± 2
same,ratio of number of colonies after treatment relative to untreated bacteria,"S.typhimurium TA 1537; TA 1537, −S9",0.3
same,number of colonies growing after treatment,"S.typhimurium TA 98; TA 98, +S9, 0.012 mg per plate",24 ± 4
same,number of colonies growing after treatment,"S.typhimurium TA 98; TA 98, +S9, 0.037 mg per plate",27 ± 3
same,number of colonies growing after treatment,"S.typhimurium TA 98; TA 98, +S9, 0.11 mg per plate",23 ± 5
same,number of colonies growing after treatment,"S.typhimurium TA 98; TA 98, +S9, 0.33 mg per plate",24 ± 7
same,number of colonies growing after treatment,"S.typhimurium TA 98; TA 98, +S9, 1 mg per plate",29 ± 6
same,ratio of number of colonies after treatment relative to untreated bacteria,"S.typhimurium TA 98; TA 98, +S9",1.07
same,number of colonies growing after treatment,"S.typhimurium TA 98; TA 98, −S9, 0.012 mg per plate",24 ± 4
same,number of colonies growing after treatment,"S.typhimurium TA 98; TA 98, −S9, 0.037 mg per plate",18 ± 8
same,number of colonies growing after treatment,"S.typhimurium TA 98; TA 98, −S9, 0.11 mg per plate",30 ± 10
same,number of colonies growing after treatment,"S.typhimurium TA 98; TA 98, −S9, 0.33 mg per plate",21 ± 5
same,number of colonies growing after treatment,"S.typhimurium TA 98; TA 98, −S9, 1 mg per plate",20 ± 5
same,ratio of number of colonies after treatment relative to untreated bacteria,"S.typhimurium TA 98; TA 98, −S9",1.05
same,cell lysis,[2],no cell lysis
same,mutagenic potential,[3],no mutagenic potential
same,cell viability,liver cells (HepG2),did not observe a significant reduction
same,reduction of time slope of recovery of balance vs saline,rats; after 4 mg/kg etomidate i.v.,4.9 min
same,reduction of time slope of recovery of balance vs saline,rats; after 30 mg/kg ketamine i.v.,3.9 min
same,reduction of time slope of recovery of balance vs saline,"rats; after 50 mg/kg ketamine i.m., calabadion 2 i.p.",15.7 min
same,cell viability,kidney cells (HEK293),only a slight dip
same,MAP compared to pre-ketamine baseline,Sprague-Dawley rats [4],~130%
same,decrease of time to recovery from LORR relative to saline,Sprague-Dawley rats [5]; etomidate-anesthetized rats,~50%
same,decrease of time to recovery from LORR relative to saline,Sprague-Dawley rats [5]; ketamine anesthetized rats,about 30%
same,ED50 (median dose for accelerated recovery from LORR with 50% probability),Sprague-Dawley rats [5]; reversal of 4 mg/kg i.v. etomidate bolus,984 mg/kg
same,ED50 (median dose for accelerated recovery from LORR with 50% probability),"Sprague-Dawley rats [5]; reversal of 30 mg/kg i.v. bolus of ketamine, 30 mg/kg",167 mg/kg
same,IC50,hERG channel,> 25 µM
same,Job plot maximum (mole fraction),Job plot [6],0.5
same,cell viability,[7],did not observe a significant reduction
same,Job plot maximum (mole fraction),Job plot [8],0.5
same,tolerability at effective doses,Sprague-Dawley rats [9],well tolerated
same,"pathology finding, kidney","Sprague-Dawley rats [9]; 5 of 6 animals that received the 2 highest doses, not at 1.6 g/kg",• A mild vacuolation of the epithelium in the P1 and P2 segments of the proximal convoluted tubule.
same,"pathology finding, liver","Sprague-Dawley rats [9]; all animals that received 3.1–5.1 g/kg, 1 animal that received 1.6 g/kg",• Mild to moderate vacuolation that is consistent with mild fat accumulation.
same,"pathology finding, lung",Sprague-Dawley rats [9]; animals receiving 3.1–5.1 g/kg,"Mild cellular necrosis, some apparent fluid in alveolar spaces and enlarged, foamy pulmonary alveolar macrophages; also recorded: Occasional distension of pulmonary alveolar capillaries with red blood cells and in a few animals evidence of possible pulmonary emboli; also recorded: Macrophages, especially in connective tissue or adipose tissue that were distended with a bluish, hematoxylin-positive material that appeared to be localized in the lysosomes"
same,"pathology finding, heart","Sprague-Dawley rats [9]; i.v. up to 5.1 g/kg, all doses",• Within normal limits
same,"pathology finding, spleen","Sprague-Dawley rats [9]; i.v. up to 5.1 g/kg, all doses",• Within normal limits
same,median lethal dose (LD50),"Sprague-Dawley rats [9]; i.v., escalating doses on consecutive days, n=10",2.7 g/kg
same,number of colonies growing after treatment,"S.typhimurium TA 1535; TA 1535, +S9, 0.012 mg per plate",10 ± 2
same,number of colonies growing after treatment,"S.typhimurium TA 1535; TA 1535, +S9, 0.037 mg per plate",6 ± 2
same,number of colonies growing after treatment,"S.typhimurium TA 1535; TA 1535, +S9, 0.11 mg per plate",7 ± 1
same,number of colonies growing after treatment,"S.typhimurium TA 1535; TA 1535, +S9, 0.33 mg per plate",10 ± 5
same,number of colonies growing after treatment,"S.typhimurium TA 1535; TA 1535, +S9, 1 mg per plate",7 ± 3
same,ratio of number of colonies after treatment relative to untreated bacteria,"S.typhimurium TA 1535; TA 1535, +S9",0.87
same,number of colonies growing after treatment,"S.typhimurium TA 1535; TA 1535, −S9, 0.012 mg per plate",6 ± 1
same,number of colonies growing after treatment,"S.typhimurium TA 1535; TA 1535, −S9, 0.037 mg per plate",10 ± 5
same,number of colonies growing after treatment,"S.typhimurium TA 1535; TA 1535, −S9, 0.11 mg per plate",8 ± 3
same,number of colonies growing after treatment,"S.typhimurium TA 1535; TA 1535, −S9, 0.33 mg per plate",7 ± 4
same,number of colonies growing after treatment,"S.typhimurium TA 1535; TA 1535, −S9, 1 mg per plate",8 ± 3
same,ratio of number of colonies after treatment relative to untreated bacteria,"S.typhimurium TA 1535; TA 1535, −S9",0.72
same,average weight change of mice,"Swiss Webster mice; all groups (29, 87, 145, 203 mg/kg i.p. daily for 14 days), after 28 days",≥ 95%
same,tolerance in maximum tolerated dose study,"Swiss Webster mice; mice, i.p. daily for 14 days, up to 203 mg/kg",good tolerance
same,number of colonies growing after treatment,"S.typhimurium TA 100; TA 100, +S9, 0.012 mg per plate",114 ± 2
same,number of colonies growing after treatment,"S.typhimurium TA 100; TA 100, +S9, 0.037 mg per plate",112 ± 8
same,number of colonies growing after treatment,"S.typhimurium TA 100; TA 100, +S9, 0.11 mg per plate",91 ± 6
same,number of colonies growing after treatment,"S.typhimurium TA 100; TA 100, +S9, 0.33 mg per plate",101 ± 7
same,number of colonies growing after treatment,"S.typhimurium TA 100; TA 100, +S9, 1 mg per plate",97 ± 4
same,ratio of number of colonies after treatment relative to untreated bacteria,"S.typhimurium TA 100; TA 100, +S9",0.88
same,number of colonies growing after treatment,"S.typhimurium TA 100; TA 100, −S9, 0.012 mg per plate",92 ± 11
same,number of colonies growing after treatment,"S.typhimurium TA 100; TA 100, −S9, 0.037 mg per plate",100 ± 6
same,number of colonies growing after treatment,"S.typhimurium TA 100; TA 100, −S9, 0.11 mg per plate",94 ± 4
same,number of colonies growing after treatment,"S.typhimurium TA 100; TA 100, −S9, 0.33 mg per plate",105 ± 9
same,number of colonies growing after treatment,"S.typhimurium TA 100; TA 100, −S9, 1 mg per plate",106 ± 6
same,ratio of number of colonies after treatment relative to untreated bacteria,"S.typhimurium TA 100; TA 100, −S9",1.06
